Test results taken from ChEMBL document CHEMBL1641372 (Bioorg Med Chem Lett, 2011).

Columns and labels:
[1] = target: T1, 5-hydroxytryptamine receptor 3A (Homo sapiens, UniProt P46098); assay: Binding affinity to human 5HT3A receptor; format: single protein
T1 sequence (P46098 whole entry): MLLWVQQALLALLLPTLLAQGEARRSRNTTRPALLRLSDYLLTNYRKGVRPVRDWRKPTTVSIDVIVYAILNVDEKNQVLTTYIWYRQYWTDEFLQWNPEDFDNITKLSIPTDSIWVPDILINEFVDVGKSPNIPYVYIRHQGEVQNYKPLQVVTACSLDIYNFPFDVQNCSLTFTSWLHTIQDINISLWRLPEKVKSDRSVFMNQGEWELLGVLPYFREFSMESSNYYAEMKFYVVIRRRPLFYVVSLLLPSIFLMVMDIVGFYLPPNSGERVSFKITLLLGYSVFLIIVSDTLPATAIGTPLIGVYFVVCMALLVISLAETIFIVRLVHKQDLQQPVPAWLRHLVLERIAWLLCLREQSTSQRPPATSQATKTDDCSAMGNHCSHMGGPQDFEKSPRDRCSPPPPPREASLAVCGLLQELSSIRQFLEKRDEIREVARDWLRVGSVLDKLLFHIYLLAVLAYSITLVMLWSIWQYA

[2] = target: T1, 5-hydroxytryptamine receptor 3A; assay: Partial agonist activity at human 5HT3A receptor expressed in HEK293 cells assessed as effect on serotonin-induced response; format: functional, cell-based
[3] = Intrinsic clearance in human liver microsomes assessed per mg of protein; format: ADME, Microsome
Mus musculus = assay: Partial agonist activity at 5HT3 receptor in po dosed mouse assessed inhibition of serotonin-induced bradycardia administered 1 hr before serotonin challenge by von Bezold-Jarisch reflex test; format: functional
Cytochrome P450 3A4 = Cytochrome P450 3A4 (Homo sapiens, UniProt P08684); assay: Inhibition of human CYP3A4; format: ADME
Chain of Cytochrome P450 3A4 (P08684 whole entry): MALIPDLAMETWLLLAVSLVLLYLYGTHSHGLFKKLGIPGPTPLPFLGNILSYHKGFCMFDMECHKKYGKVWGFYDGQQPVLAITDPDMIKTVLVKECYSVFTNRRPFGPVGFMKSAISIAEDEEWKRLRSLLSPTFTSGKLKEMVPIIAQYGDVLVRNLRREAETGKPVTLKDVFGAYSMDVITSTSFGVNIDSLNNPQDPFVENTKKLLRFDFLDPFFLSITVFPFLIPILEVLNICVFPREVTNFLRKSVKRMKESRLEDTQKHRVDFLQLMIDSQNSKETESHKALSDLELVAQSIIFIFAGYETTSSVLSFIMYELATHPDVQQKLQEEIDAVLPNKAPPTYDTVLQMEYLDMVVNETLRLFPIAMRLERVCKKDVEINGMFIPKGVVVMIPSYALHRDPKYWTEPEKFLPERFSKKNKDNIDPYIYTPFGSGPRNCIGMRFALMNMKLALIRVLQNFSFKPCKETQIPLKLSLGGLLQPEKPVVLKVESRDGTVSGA

[4] = target: T1, 5-hydroxytryptamine receptor 3A; assay: Partial agonist activity at human 5HT3A receptor expressed in HEK293 cells assessed as decrease in 10 uM 5-chloroindole-induced increase in intracellular calcium release; format: functional, cell-based
[5] = Inhibition of human CYP450; format: ADME
[6] = target: T2, 5-hydroxytryptamine receptor 1A (Homo sapiens) (UniProt P08908); assay: Inhibition of 5HT1A receptor at 1 uM
T2 sequence (whole entry): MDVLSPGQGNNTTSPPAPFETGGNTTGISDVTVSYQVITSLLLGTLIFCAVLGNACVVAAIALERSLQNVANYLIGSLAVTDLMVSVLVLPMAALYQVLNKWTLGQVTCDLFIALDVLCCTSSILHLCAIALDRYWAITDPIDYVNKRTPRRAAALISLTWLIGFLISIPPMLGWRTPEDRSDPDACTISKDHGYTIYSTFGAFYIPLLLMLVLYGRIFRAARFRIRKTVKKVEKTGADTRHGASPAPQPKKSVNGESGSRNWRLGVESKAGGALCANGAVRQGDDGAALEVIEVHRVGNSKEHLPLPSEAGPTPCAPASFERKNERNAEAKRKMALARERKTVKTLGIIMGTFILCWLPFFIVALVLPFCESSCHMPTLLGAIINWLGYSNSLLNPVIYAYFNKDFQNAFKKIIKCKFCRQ

[7] = target: 5-hydroxytryptamine receptor 4 (Homo sapiens) (UniProt Q13639); assay: Inhibition of 5HT4 receptor at 1 uM
Chain of 5-hydroxytryptamine receptor 4 (Homo sapiens) (Q13639 whole entry): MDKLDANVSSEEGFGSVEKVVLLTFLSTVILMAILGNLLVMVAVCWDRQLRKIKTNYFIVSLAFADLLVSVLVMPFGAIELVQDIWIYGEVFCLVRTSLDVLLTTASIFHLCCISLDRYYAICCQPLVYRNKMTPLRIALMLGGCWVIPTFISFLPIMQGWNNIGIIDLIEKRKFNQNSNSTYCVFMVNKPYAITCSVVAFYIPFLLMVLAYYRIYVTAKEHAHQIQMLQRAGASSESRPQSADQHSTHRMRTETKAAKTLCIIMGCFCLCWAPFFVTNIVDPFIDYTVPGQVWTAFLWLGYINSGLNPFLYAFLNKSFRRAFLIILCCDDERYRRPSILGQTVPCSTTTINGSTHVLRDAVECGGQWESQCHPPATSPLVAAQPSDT

[8] = Solubility of the compound at pH 7.4 phosphate buffered saline; format: physicochemical

`CCn1nc2c3c(cccc31)C(=O)N([C@H]1CN3CCC1CC3)C2` gave a Ki [1] of 2 nM.

For `CC(C)Cn1nc2c3c(cccc31)C(=O)N([C@@H]1CN3CCC1CC3)C2`, the Ki [1] was 2.4 nM.

`O=C(N[C@H]1CN2CCC1CC2)c1c[nH]c2ccsc2c1=O` [PUMOSETRAG] gave an EC50 [2] of 5.4 nM, a microsomal CLint [3] of 24 µL/min/mg and an ED50 (Mus musculus) of 0.96 mg/kg. The IC50 (Cytochrome P450 3A4) was 9300 nM and the EC50 [4] was 9.2 nM.

For `Cn1nc2c3c(cc(F)cc31)C(=O)N([C@H]1CN3CCC1CC3)C2`, the Ki [1] was 2 nM.

`CCn1nc2c3c(cccc31)C(=O)N([C@@H]1CN3CCC1CC3)C2` showed a Ki [1] of 1.6 nM.

`Cc1[nH]cnc1CN1CCc2c(c3ccccc3n2C)C1=O` [ALOSETRON] showed an ED50 (Mus musculus) of 0.02 mg/kg.

For `O=C1c2cccc3[nH]nc(c23)CN1[C@H]1CN2CCC1CC2`, the IC50 [5] was > 50000 nM, the microsomal CLint [3] was 7.3 µL/min/mg and the ED50 (Mus musculus) was 0.64 mg/kg. For the same compound, the inhibition [6] was > 50%, the IC50 (Cytochrome P450 3A4) was < 10000 nM and the inhibition [7] was > 50%.

With `Cn1nc2c3c(cccc31)C(=O)N([C@@H]1CN3CCC1CC3)C2` the Ki [1] was 0.7 nM.

`O=C1c2cccc3c2c(nn3Cc2ccccc2)CN1[C@H]1CN2CCC1CC2` gave a Ki [1] of 7.1 nM.

Work on `Cn1cc2c3c(cccc31)C(=O)N([C@@H]1CN3CCC1CC3)C2` yielded a Ki [1] of 0.7 nM.

In the case of `O=C1c2cccc3[nH]nc(c23)CN1[C@@H]1CN2CCC1CC2`, the inhibition [6] is reported as > 50% and the inhibition [7] is reported as > 50%.

For `Cn1cc2c3c(cccc31)C(=O)N([C@H]1CN3CCC1CC3)C2`, the Ki [1] was 0.9 nM.

In the case of `Cn1nc2c3c(cccc31)C(=O)N([C@H]1CN3CCC1CC3)C2`, the IC50 [5] is reported as > 50000 nM, the EC50 [2] is reported as 12.6 nM and the microsomal CLint [3] is reported as 3.8 µL/min/mg. The ED50 (Mus musculus) was 0.25 mg/kg, the solubility [8] was > 500 µM and the IC50 (Cytochrome P450 3A4) was < 10000 nM. The EC50 [4] was 6.9 nM and the Ki [1] was 1.7 nM.
